The record followed here is patent US20260167659A1, “STING AGONISTS” (LIGACHEM BIOSCIENCES INC., priority 2022, published 2026).

Each structure is given as a SMILES string.

The target in one assay is T1, hSTING-WT (R232) (Homo sapiens, UniProt Q86WV6, H232R).
T1 construct: host or cells: THP1-Dual cells (human monocytes) with knocked-in hSTING R232
The assay is described as follows: STING activation, THP1-Dual IRF3 reporter assay, hSTING-R232 cells. The format is cell-based. The note with it: IRF3 luciferase reporter, 24 hours, read-out: STING activity using hSTING-R232 cells EC50. As to the method:
To assess potency of STING agonist compounds described herein, THP1-Dual™ Cells (NF—KB-SEAP and IRF-Lucia luciferase reporter monocytes, InvivoGen) were used. The reporter cells were knocked-in either of hSTING-WT (R232, #thpd-r232), HAQ variant (#thpd-nfis), or H232 variant (#thpd-h232). All cells were cultured at 37° C. in a humidified incubator at 5% CO2 and maintained in RPMI 1640 medium (Gibco, #22400097) supplemented with 10% heat-inactivated FBS and 1×Pen-Strep (Gibco, #15140122). To measure STING agonist-mediated IRF3 activity, the cells (9.0×10^4 cells per well) were seeded in a flat-bottomed 96-well plate. The next day, the cells were treated with compounds in a serial dilution for 24 hours. Subsequently, 20 μL of the cell culture supernatant and 50 μL of the QUANTI-Luc™ reagent (InvivoGen, #rep-qlc) were mixed in a 96-well white plate and then, luciferase activity was measured using an EnVision Xcite multilabel reader. The data were analyzed using Prism8 software (4-parameter).
The potency of STING agonist compounds was evaluated by the activation of Type I Interferon pathway using THP-1 IRF3 reporter assay.
(In general: In a reporter assay the amount or activity of a reporter protein is the signal.)

A further assay concerns the target T2, human STING (Homo sapiens, UniProt Q86WV6, H232R).
T2 construct: purchased Cisbio 64BDSTGPEG
The assay is described as follows: Direct STING binding, HUMAN STING WT BINDING KIT (Cisbio). The note with it: direct binding to human STING WT protein in vitro; read-out: Binding potency EC50. The source says: Additionally, for analysis of direct binding potency of STING agonist compounds described herein to human STING, HUMAN STING WT BINDING KIT (Cisbio, #64BDSTGPEG) was used according to the manufacture's instruction.

T2 sequence (Q86WV6 whole entry H232R): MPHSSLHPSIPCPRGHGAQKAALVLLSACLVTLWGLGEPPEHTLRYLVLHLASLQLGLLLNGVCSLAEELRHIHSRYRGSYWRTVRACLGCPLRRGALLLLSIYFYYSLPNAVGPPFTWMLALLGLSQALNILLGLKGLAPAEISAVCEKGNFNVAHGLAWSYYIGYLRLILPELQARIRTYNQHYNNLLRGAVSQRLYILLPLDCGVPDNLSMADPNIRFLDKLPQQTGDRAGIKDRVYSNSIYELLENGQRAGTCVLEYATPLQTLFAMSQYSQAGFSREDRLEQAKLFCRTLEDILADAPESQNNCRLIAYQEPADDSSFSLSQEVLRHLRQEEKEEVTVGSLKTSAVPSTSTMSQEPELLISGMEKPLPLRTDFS
T1 sequence (Q86WV6 whole entry H232R): as above

`CCn1nc(C)cc1C(=O)Nc1nc2cc(C(N)=O)cc(OC/C=C/Cn3cc(NC(=O)OCc4ccc(OC5O[C@H](C(=O)O)[C@@H](O)[C@H](O)[C@H]5O)c(C(=O)NCCOCCOCCN(C)C)c4)cn3)c2n1C/C=C/Cn1c(NC(=O)c2cc(C)nn2CC)nc2cc(C(N)=O)cc(OCCCS(C)(=O)=NC(=O)OCc3ccc(O[C@@H]4O[C@H](C(=O)O)[C@@H](O)[C@H](O)[C@H]4O)c(C(=O)NCCOCCOCCN(C)C)c3)c21` (some centres unmarked) [Compound 376]: the EC50 (usually the concentration needed to bring the measured effect to its halfway point) on hSTING-WT (R232) is 287 nM.

As for `CCn1nc(C)cc1C(=O)Nc1nc2cc(C(N)=O)cc(OC)c2n1C/C=C/Cn1c(NC(=O)c2cc(C)nn2CC)nc2cc(C(N)=O)cc(OC/C=C/CN(CCCNC(=O)OCc3ccc(O[C@@H]4O[C@H](C(=O)O)[C@@H](O)[C@H](O)[C@H]4O)c(C(=O)NCCOCCOCCN4CCOCC4)c3)C(=N)N)c21` [Compound 332], at hSTING-WT (R232), the EC50 stood at 574 nM. Take `CCn1nc(C)cc1C(=O)Nc1nc2cc(C(N)=O)cc(OC)c2n1C/C=C/Cn1c(NC(=O)c2cc(C)nn2CC)nc2cc(C(N)=O)cc(OC/C=C/Cn3cc(NC(=O)OCc4ccc(O[C@@H]5O[C@H](C(=O)O)[C@@H](O)[C@H](O)[C@H]5O)c(C(=O)NCCOCCOCCN5CCOCC5)c4)cn3)c21` [Compound 291]: the EC50 was found to be 8.86 nM on hSTING-WT (R232) and 0.26 nM on human STING.

Turning to `CCn1nc(C)cc1C(=O)Nc1nc2cc(C(N)=O)cc(OC/C=C/Cn3cc(NC(=O)OCc4ccc(O[C@@H]5O[C@H](C(=O)O)[C@@H](O)[C@H](O)[C@H]5O)c(C(=O)NCCOCCOCCN(C)C)c4)cn3)c2n1C/C=C/Cn1c(NC(=O)c2cc(C)nn2CC)nc2cc(C(N)=O)cc(OC/C=C/Cn3cc(NC(=O)OCc4ccc(O[C@@H]5O[C@H](C(=O)O)[C@@H](O)[C@H](O)[C@H]5O)c(C(=O)NCCOCCOCCN(C)C)c4)cn3)c21` [Compound 359], the EC50 on hSTING-WT (R232) is 463 nM; on human STING, 0.17 nM.

For the molecule `CCn1nc(C)cc1C(=O)Nc1nc2cc(C(N)=O)cc(OC)c2n1C/C=C/Cn1c(NC(=O)c2cc(C)nn2CC)nc2cc(C(N)=O)cc(OC/C=C/Cn3cc(NC(=O)OCc4ccc(O[C@@H]5O[C@H](C(=O)O)[C@@H](O)[C@H](O)[C@H]5O)c(C(=O)NCCOCCOCCN=[N+]=[N-])c4)cn3)c21` [Compound 367], at hSTING-WT (R232), the EC50 was determined as 7.67 nM. In the case of `CCn1nc(C)cc1C(=O)Nc1nc2cc(C(N)=O)cc(OC)c2n1C/C=C/Cn1c(NC(=O)c2cc(C)nn2CC)nc2cc(C(N)=O)cc(OC/C=C/Cn3cc(NC(=O)OCc4ccc(O[C@@H]5O[C@H](C(=O)O)[C@@H](O)[C@H](O)[C@H]5O)c(C(=O)NCCCn5cc(CCOP(=O)(O)O)nn5)c4)cn3)c21` [Compound 357], the results for the EC50 on hSTING-WT (R232) and on human STING were 50.4 nM and 0.14 nM, respectively.

For the molecule `CCn1nc(C)cc1C(=O)Nc1nc2cc(C(N)=O)cc(OC)c2n1C/C=C/Cn1c(NC(=O)c2cc(C)nn2CC)nc2cc(C(N)=O)cc(OC/C=C/Cn3cc(NC(=O)OCc4ccc(O[C@@H]5O[C@H](C(=O)O)[C@@H](O)[C@H](O)[C@H]5O)c(C(=O)NCCOCCOCCN)c4)cn3)c21` [Compound 372], the EC50 at hSTING-WT (R232) was found to be 54.6 nM. On to `CCn1nc(C)cc1C(=O)Nc1nc2cc(C(N)=O)cc(OC)c2n1C/C=C/Cn1c(NC(=O)c2cc(C)nn2CC)nc2cc(C(N)=O)cc(OC/C=C/Cn3cc(NC(=O)OCc4ccc(O[C@@H]5O[C@H](CO)[C@H](O)[C@H](O)[C@H]5O)c(C(=O)NCCOCCOCCO)c4)cn3)c21` [Compound 307], for which the EC50 amounted to 5.36 nM on hSTING-WT (R232) and 0.18 nM at human STING. In the case of `CCn1nc(C)cc1C(=O)Nc1nc2cc(C(N)=O)cc(OC)c2n1C/C=C/Cn1c(NC(=O)c2cc(C)nn2CC)nc2cc(C(N)=O)cc(OC/C=C/Cn3cc(NC(=O)OCc4ccc(O[C@@H]5O[C@H](C(=O)O)[C@@H](O)[C@H](O)[C@H]5O)c(C(=O)NCCOC)c4)cn3)c21` [Compound 272], at hSTING-WT (R232), the EC50 came out at 18.8 nM. On to `CCn1nc(C)cc1C(=O)Nc1nc2cc(C(N)=O)cc(OC)c2n1C/C=C/Cn1c(NC(=O)c2cc(C)nn2CC)nc2cc(C(N)=O)cc(OCCc3ccc(NC(=O)OCc4ccc(O[C@@H]5O[C@H](C(=O)O)[C@@H](O)[C@H](O)[C@H]5O)c(C(=O)NCCOCCOCCN(C)C)c4)cc3)c21` [Compound 262], for which the EC50 at hSTING-WT (R232) came out at 6.78 nM.

For `CCn1nc(C)cc1C(=O)Nc1nc2cc(C(N)=O)cc(OC)c2n1C/C=C/Cn1c(NC(=O)c2cc(C)nn2CC)nc2cc(C(N)=O)cc(OC/C=C/CN3CCN(C(=O)OCc4ccc(O[C@@H]5O[C@H](C(=O)O)[C@@H](O)[C@H](O)[C@H]5O)c(C(=O)NCCOC)c4)CC3=O)c21` [Compound 417], the EC50 at hSTING-WT (R232) came out at 24.6 nM. `CCn1nc(C)cc1C(=O)Nc1nc2cc(C(N)=O)cc(OC)c2n1C/C=C/Cn1c(NC(=O)c2cc(C)nn2CC)nc2cc(C(N)=O)cc(OC/C=C/Cn3cc(NCCC(=O)OC)cn3)c21` [Compound 174]: on hSTING-WT (R232), the EC50 is 44.4 nM. In the case of `CCn1nc(C)cc1C(=O)Nc1nc2cc(C(N)=O)cc(OC)c2n1C/C=C/Cn1c(NC(=O)c2cc(C)nn2CC)nc2cc(C(N)=O)cc(OC/C=C/Cn3cc(NC(=O)OCc4ccc(O[C@@H]5O[C@H](C(=O)O)[C@@H](O)[C@H](O)[C@H]5O)c(C(=O)NCCOCCOCCOCCOCCOCC(=O)O)c4)cn3)c21` [Compound 285], the EC50 was 33.5 nM on hSTING-WT (R232) and 0.3 nM on human STING.

On to `CCn1nc(C)cc1C(=O)Nc1nc2cc(C(N)=O)cc(OC)c2n1C/C=C/Cn1c(NC(=O)c2cc(C)nn2CC)nc2cc(C(N)=O)cc(OC/C=C/Cn3cc(NC(=O)OCc4ccc(O[C@@H]5O[C@H](C(=O)O)[C@@H](O)[C@H](O)[C@H]5O)c(C(=O)NCCC(=O)NC(CC(=O)O)CC(=O)O)c4)cn3)c21` [Compound 328], for which the 50% effective concentration (EC50) at hSTING-WT (R232) was 80.7 nM; on human STING, 0.04 nM. For `CCn1nc(C)cc1C(=O)Nc1nc2cc(C(N)=O)cc(OC)c2n1C/C=C/Cn1c(NC(=O)c2cc(C)nn2CC)nc2cc(C(N)=O)cc(OC/C=C/Cn3cc(NC(=O)OCc4ccc(O[C@@H]5O[C@H](CO)[C@H](O)[C@H](O)[C@H]5O)c(C(=O)NCCOCCOCCN(C)C)c4)cn3)c21` [Compound 337], in that order: 16.2 nM and 0.19 nM. With `CCn1nc(C)cc1C(=O)Nc1nc2cc(C(N)=O)cc(OC)c2n1C/C=C/Cn1c(NC(=O)c2cc(C)nn2CC)nc2cc(C(N)=O)cc(OC/C=C/Cn3cc(NC(=O)OCc4ccc(O[C@@H]5O[C@H](CO)[C@H](O)[C@H](O)[C@H]5O)c(C(=O)NCCOC)c4)cn3)c21` [Compound 320], the EC50 on hSTING-WT (R232) is 3.65 nM; on human STING, 0.04 nM. Turning to `CCn1nc(C)cc1C(=O)Nc1nc2cc(C(N)=O)cc(OC)c2n1C/C=C/Cn1c(NC(=O)c2cc(C)nn2CC)nc2cc(C(N)=O)cc(OC/C=C/CN3CCCN3C(=O)OCc3ccc(O[C@@H]4O[C@H](C(=O)O)[C@@H](O)[C@H](O)[C@H]4O)c(C(=O)NCCOC)c3)c21` [Compound 419], at hSTING-WT (R232), the EC50 came out at 38.1 nM. Still for that read-out and setting: as for `C#CCNC(=O)c1cc(COC(=O)Nc2cnn(C/C=C/COc3cc(C(N)=O)cc4nc(NC(=O)c5cc(C)nn5CC)n(C/C=C/Cn5c(NC(=O)c6cc(C)nn6CC)nc6cc(C(N)=O)cc(OC)c65)c34)c2)ccc1O[C@@H]1O[C@H](C(=O)OC)[C@@H](OC(C)=O)[C@H](OC(C)=O)[C@H]1OC(C)=O` [Compound 347], the figure is 10.5 nM. Take `CCn1nc(C)cc1C(=O)Nc1nc2cc(C(N)=O)cc(OC)c2n1C/C=C/Cn1c(NC(=O)c2cc(C)nn2CC)nc2cc(C(N)=O)cc(OC/C=C/Cn3cc(NC(=O)OCc4ccc(O[C@@H]5O[C@H](C(=O)O)[C@@H](O)[C@H](O)[C@H]5O)c(C(=O)O)c4)cn3)c21` [Compound 299]: the half-maximal effective concentration (EC50) at hSTING-WT (R232) was determined as 7.2 nM; at human STING, 0.27 nM. Turning to `CCn1nc(C)cc1C(=O)Nc1nc2cc(C(N)=O)cc(OC)c2n1C/C=C/Cn1c(NC(=O)c2cc(C)nn2CC)nc2cc(C(N)=O)cc(OCCc3ccc(NC(=O)OCc4ccc(O[C@@H]5O[C@H](C(=O)O)[C@@H](O)[C@H](O)[C@H]5O)c(C(=O)NCCOC)c4)cc3)c21` [Compound 239], the EC50 at hSTING-WT (R232) worked out at 4.46 nM.
